The record followed here is patent US10087148B2, “Quinazolines as biogenic amine transport modulators” (THE UNITED STATES OF AMERICA AS REPRESENTED BY THE …, priority 2014, dated 2018).

Experiment [1] addresses serotonin transporter (SERT) (Rattus norvegicus (Rat), UniProt P31652). Briefly: [3H]serotonin (5-HT) uptake inhibition in rat brain synaptosomes. As to conditions: for Emax: read-out: SERT Uptake Emax; for 5HT Uptake Emax / EC50: rat brain synaptosomes, 5 nM [3H]serotonin, mean ± SD. Type of experiment: biochemical. The procedure: Uptake inhibition assay for the serotonin transporter was conducted in rat brain synaptosomes as described elsewhere with minor modifications (Rothman et al., Synapse 39, 32-41 (2001)). Freshly removed whole brain minus cerebellum and caudate was homogenized in 10% ice-cold sucrose with 12 strokes of a hand-held Potter-Elvehjem homogenizer followed by centrifugation at 1000×g for 10 min. The supernatants were saved on ice and used immediately. Transporter activity at SERT was assessed using 5 nM [^3H]serotonin. The assay buffer was Krebs-phosphate buffer containing 154.4 mM NaCl, 2.9 mM KCl, 1.1 mM CaCl2, 0.83 mM MgCl2, 5 mM glucose, 1 mg/mL ascorbic acid, and 50 μM pargyline. […] Uptake inhibition assays were conducted at 25° C. and were initiated by adding 100 μL of tissue to 900 μL assay buffer containing test drug and [^3H]serotonin. Test drugs were diluted in assay buffer containing 1 mg/mL bovine serum albumin. Nonspecific uptake was measured by incubating in the presence of 10 μM indatraline. The reactions were stopped after 30 min by rapid vacuum filtration with a cell harvester (BRANDEL) over GF/B filters (Whatman) presoaked in wash buffer maintained at 25° C. (10 mM Tris-HCl, pH 7.4/150 mM NaCl). Filters were rinsed with 6 mL wash buffer and retained tritium was quantified by a MicroBeta liquid scintillation counter (PerkinElmer) after overnight extraction in 0.6 mL of liquid scintillation cocktail (Cytoscint, ICN). The data from three experiments were pooled and fit to a dose-response curve equation (using Kaleidagraph), to yield an Emax and EC50 value.

The target of a further experiment is DAT (Rattus norvegicus (Rat), UniProt P23977). Briefly: Inhibition of [3H]WIN35428 binding to rat caudate DAT. The note with it: [3H]WIN35428, mean ± S.D., n = 3; for IC50: unit as printed in head (text gives 1100 nM where table prints 1.1). The procedure: All of the test compounds were synthesized as described herein. […] The data from three experiments were pooled and fit to a dose-response curve equation (using KaleidaGraph; Synergy Software, Reading, Pa.) to yield an Emax and IC50 value. […] Selected compounds were also tested for their ability to inhibit [^3H]WIN35428 binding to rat caudate DAT.

Experiment [2] addresses norepinephrine transporter (NET) (Rattus norvegicus, UniProt Q63380). Briefly: [3H]norepinephrine (NE) uptake inhibition in rat brain synaptosomes. Type of experiment: biochemical. The note with it: for Emax: read-out: NET Uptake Emax; for IC50: read-out: NET Uptake IC50; for NE Uptake Emax / EC50: rat brain synaptosomes, 10 nM [3H]norepinephrine, mean ± SD; for EC50: read-out: NE Uptake EC50. Here is the method: Uptake inhibition assay for the norepinephrine transporter was conducted in rat brain synaptosomes as described elsewhere with minor modifications (Rothman et al., Synapse 39, 32-41 (2001)). Freshly removed whole brain minus cerebellum and caudate was homogenized in 10% ice-cold sucrose with 12 strokes of a hand-held Potter-Elvehjem homogenizer followed by centrifugation at 1000×g for 10 minutes. The supernatants were saved on ice and used immediately. Transporter activity at NET was assessed using 10 nM [^3H]norepinephrine. The assay buffer was Krebs-phosphate buffer containing 154.4 mM NaCl, 2.9 mM KCl, 1.1 mM CaCl2, 0.83 mM MgCl2, 5 mM glucose, 1 mg/mL ascorbic acid, and 50 μM pargyline. […] Uptake inhibition assays were conducted at 37° C. and were initiated by adding 100 μL of tissue to 900 μL assay buffer containing test drug and [^3H]norepinephrine. Test drugs were diluted in assay buffer containing 1 mg/mL bovine serum albumin. Nonspecific uptake was measured by incubating in the presence of 10 μM indatraline. The reactions were stopped after 10 minutes by rapid vacuum filtration with a cell harvester (BRANDEL) over GF/B filters (Whatman) presoaked in wash buffer maintained at 25° C. (10 mM Tris-HCl, pH 7.4/150 mM NaCl). Filters were rinsed with 6 mL wash buffer and retained tritium was quantified by a MicroBeta liquid scintillation counter (PerkinElmer) after overnight extraction in 0.6 mL of liquid scintillation cocktail (Cytoscint, ICN). The data from three experiments were pooled and fit to a dose-response curve equation (using Kaleidagraph), to yield an Emax and EC50 value.

Experiment [3] concerns the target dopamine transporter (DAT) (Rattus norvegicus (Rat), UniProt P23977). Nature of the experiment: [3H]dopamine (DA) uptake inhibition in rat brain (caudate) synaptosomes. It counts as biochemical. As to conditions: for Emax: mean ± S.D., n = 3, read-out: DAT Uptake Emax; for DA Uptake Emax / EC50: rat caudate synaptosomes, 5 nM [3H]dopamine, mean ± SD. The procedure:
Uptake inhibition assay for the dopamine transporter was conducted in rat brain synaptosomes as described elsewhere with minor modifications (Rothman et al., Synapse 39, 32-41 (2001)). Freshly removed caudate was homogenized in 10% ice-cold sucrose with 12 strokes of a hand-held Potter-Elvehjem homogenizer followed by centrifugation at 1000×g for 10 min. The supernatants were saved on ice and used immediately. Transporter activity was assessed using 5 nM [^3H]dopamine. The assay buffer was Krebs-phosphate buffer containing 154.4 mM NaCl, 2.9 mM KCl, 1.1 mM CaCl2, 0.83 mM MgCl2, 5 mM glucose, 1 mg/mL ascorbic acid, and 50 μM pargyline. The selectivity of the uptake assay for DAT was optimized by including 100 nM citalopram and 100 nM desipramine as blockers of SERT and NET in the sucrose solution and assay buffer. Uptake inhibition assays were conducted at 25° C. and were initiated by adding 100 μl of tissue to 900 μL assay buffer containing test drug and [^3H]dopamine. Test drugs were diluted in assay buffer containing 1 mg/mL bovine serum albumin. Nonspecific uptake was measured by incubating in the presence of 10 μM indatraline. The reactions were stopped after 15 minutes by rapid vacuum filtration with a cell harvester (BRANDEL) over GF/B filters (Whatman) presoaked in wash buffer maintained at 25° C. (10 mM Tris-HCl, pH 7.4/150 mM NaCl). Filters were rinsed with 6 mL wash buffer and retained tritium was quantified by a MicroBeta liquid scintillation counter (PerkinElmer) after overnight extraction in 0.6 mL of liquid scintillation cocktail (Cytoscint, ICN). The data from three experiments were pooled and fit to a dose-response curve equation (using Kaleidagraph), to yield an Emax and EC50 value.
All of the test compounds were synthesized as described herein. Next, 8-point dose-response curves were generated for each compound (1-20,000 nM) in the [^3H]DA uptake assay. The data from three experiments were pooled and fit to a dose-response curve equation (using KaleidaGraph; Synergy Software, Reading, Pa.) to yield an Emax and IC50 value. […] Selected compounds were also tested for their ability to inhibit [^3H]WIN35428 binding to rat caudate DAT.

Sequence of dopamine transporter (DAT) (P23977 whole entry): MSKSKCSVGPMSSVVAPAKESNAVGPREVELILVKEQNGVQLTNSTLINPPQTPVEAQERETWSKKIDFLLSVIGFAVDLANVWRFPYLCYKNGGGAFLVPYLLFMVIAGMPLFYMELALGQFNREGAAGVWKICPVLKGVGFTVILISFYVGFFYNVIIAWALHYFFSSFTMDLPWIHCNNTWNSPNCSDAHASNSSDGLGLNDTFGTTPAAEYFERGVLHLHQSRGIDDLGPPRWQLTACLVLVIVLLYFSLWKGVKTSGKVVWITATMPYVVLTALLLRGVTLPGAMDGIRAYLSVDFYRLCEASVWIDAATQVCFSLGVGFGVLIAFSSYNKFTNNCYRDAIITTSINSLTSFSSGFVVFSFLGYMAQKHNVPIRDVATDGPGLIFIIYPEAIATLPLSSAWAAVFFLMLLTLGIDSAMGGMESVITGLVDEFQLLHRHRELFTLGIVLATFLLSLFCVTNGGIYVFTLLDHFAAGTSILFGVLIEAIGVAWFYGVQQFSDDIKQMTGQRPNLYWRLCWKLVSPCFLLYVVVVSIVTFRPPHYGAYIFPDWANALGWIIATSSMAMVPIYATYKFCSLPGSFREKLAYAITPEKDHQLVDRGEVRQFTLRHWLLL
Sequence of DAT (P23977 whole entry): as above
Sequence of serotonin transporter (SERT) (P31652 whole entry): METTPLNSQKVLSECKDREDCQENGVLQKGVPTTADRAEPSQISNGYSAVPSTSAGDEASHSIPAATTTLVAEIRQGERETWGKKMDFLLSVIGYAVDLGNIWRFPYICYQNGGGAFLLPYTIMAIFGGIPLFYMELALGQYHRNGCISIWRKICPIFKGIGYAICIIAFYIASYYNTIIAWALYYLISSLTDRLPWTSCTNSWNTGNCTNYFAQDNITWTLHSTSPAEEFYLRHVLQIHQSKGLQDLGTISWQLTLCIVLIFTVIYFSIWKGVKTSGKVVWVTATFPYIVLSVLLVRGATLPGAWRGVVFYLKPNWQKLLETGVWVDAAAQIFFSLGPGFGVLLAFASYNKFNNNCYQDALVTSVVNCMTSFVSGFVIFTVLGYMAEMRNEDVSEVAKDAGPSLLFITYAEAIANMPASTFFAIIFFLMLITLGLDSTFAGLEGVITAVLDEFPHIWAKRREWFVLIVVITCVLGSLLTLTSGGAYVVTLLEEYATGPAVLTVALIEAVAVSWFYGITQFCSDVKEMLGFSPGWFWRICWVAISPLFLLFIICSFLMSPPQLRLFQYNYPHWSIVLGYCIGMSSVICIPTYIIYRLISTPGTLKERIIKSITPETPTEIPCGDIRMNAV
Sequence of norepinephrine transporter (NET) (Q63380 1-617): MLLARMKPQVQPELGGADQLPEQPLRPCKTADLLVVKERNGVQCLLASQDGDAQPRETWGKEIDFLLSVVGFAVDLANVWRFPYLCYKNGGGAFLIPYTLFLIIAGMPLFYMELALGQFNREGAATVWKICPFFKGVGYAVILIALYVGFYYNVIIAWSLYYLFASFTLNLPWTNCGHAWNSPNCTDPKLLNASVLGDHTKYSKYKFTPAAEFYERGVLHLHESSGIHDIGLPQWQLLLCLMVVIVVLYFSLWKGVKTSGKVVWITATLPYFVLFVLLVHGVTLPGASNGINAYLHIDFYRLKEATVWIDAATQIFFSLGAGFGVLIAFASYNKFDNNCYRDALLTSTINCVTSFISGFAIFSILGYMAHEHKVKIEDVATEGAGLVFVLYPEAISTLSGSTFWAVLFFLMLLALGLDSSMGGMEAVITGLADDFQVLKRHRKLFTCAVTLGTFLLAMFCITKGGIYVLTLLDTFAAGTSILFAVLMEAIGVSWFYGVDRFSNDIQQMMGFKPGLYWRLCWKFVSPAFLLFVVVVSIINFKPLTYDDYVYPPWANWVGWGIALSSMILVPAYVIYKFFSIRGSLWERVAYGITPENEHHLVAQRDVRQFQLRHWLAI

Regarding `CNc1ncc(-c2nc(NCC(c3ccccc3)c3ccccc3)c3ccccc3n2)cn1` [SRI-29554], the Emax was 60 ± 3% in experiment [1] (mean ± S.D., n = 3); 59 ± 6% on DAT; 78 ± 2% in experiment [2]; 71 ± 1% in experiment [3]. Also, the IC50 at DAT worked out at 980 ± 460 nM; in experiment [2] (mean ± S.D., n = 3), 179 ± 27 nM.

`OC(CNc1nc(-c2ccc3[nH]ccc3c2)nc2ccccc12)(c1ccccc1)c1ccccc1` [SRI-29983]: the Emax in experiment [1] (mean ± S.D., n = 3) worked out at 57 ± 2%; at DAT, 55 ± 3%; in experiment [2], 73 ± 6%; in experiment [3] it was 70 ± 2%. In addition, the IC50 on DAT worked out at 1290 ± 340 nM; in experiment [2] (mean ± S.D., n = 3), 203 ± 79 nM.

Regarding `CS(=O)(=O)Nc1ccc(-c2nc(NCC(O)(c3ccccc3)c3ccccc3)c3ccccc3n2)cc1` [Compound 4, N-(4-(4-((2-hydroxy-2,2-diphenylethyl)amino)quinazolin-2-yl)phenyl)methanesulfonamide], the Emax in experiment [1] (mean ± S.D., n = 3) was determined as 55 ± 3%. In experiment [1], the “5HT Uptake Emax” value is given as 55 ± 3 % I and the EC50 worked out at 50 ± 14 nM. Also, at DAT, the Emax stood at 47 ± 7% and the IC50 came out at 970 ± 650 nM. Moreover, in experiment [2], the “NE Uptake Emax” value is 70 ± 2 % I, the EC50 was 426 ± 49 nM and the maximum response (Emax) is 70 ± 2%. Also, in experiment [2] (mean ± S.D., n = 3), the IC50 was determined as 426 ± 49 nM. In addition, in experiment [3], the Emax came to 70 ± 2%, the “DA Uptake Emax” value was determined as 70 ± 2 % I and the concentration giving a half-maximal response (EC50) was found to be 11 ± 2 nM.

For `CSc1ncc(-c2nc(NCC(c3ccccc3)c3ccccc3)c3ccccc3n2)cn1` [SRI-29338], the Emax in experiment [1] (mean ± S.D., n = 3) was found to be 52 ± 3%; on DAT it was 63 ± 4%; in experiment [2] it was 62 ± 3%; in experiment [3] it was 71 ± 2%. Also, the IC50 on DAT came to 1180 ± 930 nM; in experiment [2] (mean ± S.D., n = 3) it was 204 ± 47 nM.

For `CS(=O)(=O)Nc1ccc(-c2nc(NCC(c3ccccc3)c3ccccc3)c3ccccc3n2)c(Cl)c1` [Compound 53, N-(3-chloro-4-(4-((2,2-diphenylethyl)amino)quinazolin-2-yl)phenyl)methanesulfonamide], the Emax in experiment [1] (mean ± S.D., n = 3) amounted to 51 ± 2%; at DAT it was 30 ± 3%; in experiment [2], 67 ± 2%; in experiment [3], 67 ± 1%. Also, the IC50 in experiment [2] (mean ± S.D., n = 3) was determined as 47 ± 10 nM.

As to `Cn1cc2cc(-c3nc(NCC(c4ccccc4)c4ccccc4)c4ccccc4n3)ccc2n1` [SRI-29776], the Emax came to 61 ± 2% in experiment [1] (mean ± S.D., n = 3); 58 ± 3% at DAT; 71 ± 3% in experiment [2]; 69 ± 2% in experiment [3]. Moreover, the IC50 at DAT came to 6090 ± 970 nM; in experiment [2] (mean ± S.D., n = 3) it was 229 ± 43 nM.

`CN(C)c1ncc(-c2nc(NCC(O)(c3ccccc3)c3ccccc3)c3ccccc3n2)cn1` [SRI-29982]: the Emax in experiment [1] (mean ± S.D., n = 3) was found to be 51 ± 1%; on DAT it was 47 ± 6%; in experiment [2], 71 ± 2%; in experiment [3] it was 73 ± 2%. Moreover, the IC50 at DAT is 2460 ± 1210 nM; in experiment [2] (mean ± S.D., n = 3), 259 ± 41 nM.

Regarding `c1ccc(C(CNc2nc(-c3cnc4nccn4c3)nc3ccccc23)c2ccccn2)cc1` (stereo not drawn) [SRI-30507], the Emax in experiment [1] (mean ± S.D., n = 3) was 54 ± 2%; at DAT, 62 ± 7%; in experiment [2] it was 77 ± 2%; in experiment [3], 71 ± 2%. The IC50 stood at 4800 ± 1810 nM at DAT and 132 ± 16 nM in experiment [2] (mean ± S.D., n = 3).

Take `c1ccc(C(CNc2nc(-c3ccc4nccn4c3)nc3ccccc23)C2CCCCC2)cc1` (stereo not drawn) [SRI-30513]: the Emax in experiment [1] (mean ± S.D., n = 3) turned out to be 59 ± 4%; at DAT, 50 ± 4%; in experiment [2] it was 65 ± 4%; in experiment [3], 72 ± 2%. For the same compound, the IC50 was found to be 2970 ± 1030 nM on DAT and 153 ± 55 nM in experiment [2] (mean ± S.D., n = 3).

As for `Cc1cc(NS(C)(=O)=O)ccc1-c1nc(NCC(c2ccccc2)c2ccncc2)c2ccccc2n1` (stereo not drawn) [Compound 29, N-(3-methyl-4-(4-((2-phenyl-2-(pyridin-4-yl)ethyl)amino)quinazolin-2-yl)phenyl)methanesulfonamide], the Emax in experiment [1] (mean ± S.D., n = 3) is 58 ± 3%. Moreover, in experiment [1], the “5HT Uptake Emax” value is reported as 58 ± 3 % I and the response was half-maximal at 8 ± 2.8 nM (EC50). On DAT, the Emax was 72 ± 7% and the IC50 came out at 3150 ± 1110 nM. For the same compound, in experiment [2], the “NE Uptake Emax” value turned out to be 71 ± 3 % I, the EC50 was found to be 31 ± 7 nM and the maximal response (Emax) stood at 71 ± 3%. Further, the IC50 in experiment [2] (mean ± S.D., n = 3) was 31 ± 7 nM. In experiment [3], the Emax stood at 74 ± 4%, the “DA Uptake Emax” value came to 74 ± 4 % I and the EC50 was 7.4 ± 2 nM.

On to `OC(CNc1nc(-c2cnc3nccn3c2)nc2ccccc12)(c1ccccc1)c1ccccc1` [SRI-30508], for which the Emax in experiment [1] (mean ± S.D., n = 3) is 56 ± 1%; at DAT, 34 ± 3%; in experiment [2] it was 76 ± 9%; in experiment [3], 65 ± 1%. For the same compound, the IC50 at DAT amounted to 150 ± 90 nM; in experiment [2] (mean ± S.D., n = 3), 69 ± 18 nM.

For the compound `Cc1cc(NS(C)(=O)=O)ccc1-c1nc(NCC(c2ccccc2)c2ccccc2)c2ccccc2n1` [Compound 52, N-(4-(4-((2,2-diphenylethyl)amino)quinazolin-2-yl)-3-methylphenyl)methanesulfonamide], the Emax in experiment [1] (mean ± S.D., n = 3) was determined as 50 ± 2%; at DAT, 60 ± 7%; in experiment [2] it was 65 ± 3%; in experiment [3] it was 60 ± 2%. For the same compound, the IC50 in experiment [2] (mean ± S.D., n = 3) amounted to 144 ± 30 nM.

`c1ccc(C(CNc2nc(-c3ccc4nccn4c3)nc3ccccc23)c2cccnc2)cc1` (stereo not drawn) [SRI-30946]: the Emax stood at 59 ± 3% in experiment [1] (mean ± S.D., n = 3); 44 ± 3% at DAT; 75 ± 3% in experiment [2]; 70 ± 2% in experiment [3]. The IC50 on DAT amounted to 1170 ± 320 nM; in experiment [2] (mean ± S.D., n = 3), 78 ± 17 nM.

As for `COC(=O)[C@H]1[C@@H](OC(=O)c2ccccc2)C[C@@H]2CC[C@H]1N2C` [Cocaine, reference compound], the “SERT Uptake Emax” value in experiment [1] (mean ± S.D., n = 3) was found to be 98 ± 2%. Further, the “NET Uptake Emax” value in experiment [2] (mean ± S.D., n = 3) is on record as 102 ± 2%.
